Key:
[1] = human free (unbound) effective therapeutic plasma concentration used to calculate multiples; cited from earlier work
[2] = tested on: human ventricular trabeculae; test: Action potential recording and pro-arrhythmic score analysis in human ventricular trabeculae (hVT); settings: 1Hz; for Beat Escape (raw data) / EADs (raw data) / Refractoriness Escape (raw data): n=4 trabeculae;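 for all read-outs here: sharp microelectrode action potential recordings at 37°C in Tyrode-perfused trabeculae, 4 cumulative concentrations each applied 31 min, values averaged over last 30 APs, vehicle 0.1% DMSO as control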

In the case of Cc1cccc(C)c1OCC(C)N (stereo not drawn) [MEXILETINE, Mexiletine], the “Free ETPC” value [1] is given as 4.1 µM, the “AMAX (average raw data)” value ([2]; 0.7-FOLD free ETPC (4.1µM)) is given as 111 and the “AMAX percentage change compared to vehicle control” value (“AMAX percentage change” for short) ([2]; 0.7-FOLD free ETPC (4.1µM)) is given as 0%. The “APD30 (average raw data)” value ([2]; 0.7-FOLD free ETPC (4.1µM)) was 174, the “APD30 percentage change compared to vehicle control” value (from here on “APD30 percentage change”) ([2]; 0.7-FOLD free ETPC (4.1µM)) was -5% and the “APD50 (average raw data)” value ([2]; 0.7-FOLD free ETPC (4.1µM)) was 231. The “APD50 percentage change compared to vehicle control” value (shortened to “APD50 percentage change”) ([2]; 0.7-FOLD free ETPC (4.1µM)) was -3%, the “APD90 (average raw data)” value ([2]; 0.7-FOLD free ETPC (4.1µM)) was 321 and the “APD90 percentage change compared to vehicle control” value (“APD90 percentage change” below) ([2]; 0.7-FOLD free ETPC (4.1µM)) was -1%. For the same molecule, the “Alternans (average raw data)” value ([2]; 0.7-FOLD free ETPC (4.1µM)) was 0.72, the “Alternans percentage change compared to vehicle control” value (from here on “Alternans percentage change”) ([2]; 0.7-FOLD free ETPC (4.1µM)) was 7% and the “Beat Escape percentage change compared to vehicle control” value (shortened to “Beat Escape percentage change”) ([2]; 0.7-FOLD free ETPC (4.1µM)) was 25%. For the same molecule, the “EADs percentage change compared to vehicle control” value (shortened to “EADs percentage change”) ([2]; 0.7-FOLD free ETPC (4.1µM)) was 0%, the “ERP (average raw data)” value ([2]; 0.7-FOLD free ETPC (4.1µM)) was 0.43 and the “ERP percentage change compared to vehicle control” value (shortened to “ERP percentage change”) ([2]; 0.7-FOLD free ETPC (4.1µM)) was 1%. The “Max Dispersion (average raw data)” value ([2]; 0.7-FOLD free ETPC (4.1µM)) was 3.75, the “Max Dispersion percentage change compared to vehicle control” value (from here on “Max Dispersion percentage change”) ([2]; 0.7-FOLD free ETPC (4.1µM)) was 0% and the “RMP (average raw data)” value ([2]; 0.7-FOLD free ETPC (4.1µM)) was -91. The “RMP percentage change compared to vehicle control” value (“RMP percentage change” below) ([2]; 0.7-FOLD free ETPC (4.1µM)) was 1%, the “Refractoriness Escape percentage change compared to vehicle control” value (“Refractoriness Escape percentage change” below) ([2]; 0.7-FOLD free ETPC (4.1µM)) was 0% and the “STV (average raw data)” value ([2]; 0.7-FOLD free ETPC (4.1µM)) was 0.51. The “STV percentage change compared to vehicle control” value (from here on “STV percentage change”) ([2]; 0.7-FOLD free ETPC (4.1µM)) was 1%, the “Triangulation (average raw data)” value ([2]; 0.7-FOLD free ETPC (4.1µM)) was 147 and the “Triangulation percentage change compared to vehicle control” value (“Triangulation percentage change” for short) ([2]; 0.7-FOLD free ETPC (4.1µM)) was 4%. For the same molecule, the “Beat Escape (raw data)” value ([2]; 0.7-FOLD free ETPC (4.1µM)) was 1, the “EADs (raw data)” value ([2]; 0.7-FOLD free ETPC (4.1µM)) was 0 and the “Refractoriness Escape (raw data)” value ([2]; 0.7-FOLD free ETPC (4.1µM)) was 0. For the same molecule, the “AMAX (average raw data)” value ([2]; 7-FOLD free ETPC (4.1µM)) was 109, the “AMAX percentage change” value ([2]; 7-FOLD free ETPC (4.1µM)) was -3% and the “APD30 (average raw data)” value ([2]; 7-FOLD free ETPC (4.1µM)) was 158. The “APD30 percentage change” value ([2]; 7-FOLD free ETPC (4.1µM)) was -13%, the “APD50 (average raw data)” value ([2]; 7-FOLD free ETPC (4.1µM)) was 206 and the “APD50 percentage change” value ([2]; 7-FOLD free ETPC (4.1µM)) was -14%. The “APD90 (average raw data)” value ([2]; 7-FOLD free ETPC (4.1µM)) was 297, the “APD90 percentage change” value ([2]; 7-FOLD free ETPC (4.1µM)) was -8% and the “Alternans (average raw data)” value ([2]; 7-FOLD free ETPC (4.1µM)) was 0.68. For the same molecule, the “Alternans percentage change” value ([2]; 7-FOLD free ETPC (4.1µM)) was 0%, the “Beat Escape percentage change” value ([2]; 7-FOLD free ETPC (4.1µM)) was 25% and the “EADs percentage change” value ([2]; 7-FOLD free ETPC (4.1µM)) was 0%. The “ERP (average raw data)” value ([2]; 7-FOLD free ETPC (4.1µM)) was 0.41, the “ERP percentage change” value ([2]; 7-FOLD free ETPC (4.1µM)) was -5% and the “Max Dispersion (average raw data)” value ([2]; 7-FOLD free ETPC (4.1µM)) was 2.82. The “Max Dispersion percentage change” value ([2]; 7-FOLD free ETPC (4.1µM)) was -25%, the “RMP (average raw data)” value ([2]; 7-FOLD free ETPC (4.1µM)) was -91 and the “RMP percentage change” value ([2]; 7-FOLD free ETPC (4.1µM)) was 1%. The “Refractoriness Escape percentage change” value ([2]; 7-FOLD free ETPC (4.1µM)) was 0%, the “STV (average raw data)” value ([2]; 7-FOLD free ETPC (4.1µM)) was 0.49 and the “STV percentage change” value ([2]; 7-FOLD free ETPC (4.1µM)) was -3%. For the same molecule, the “Triangulation (average raw data)” value ([2]; 7-FOLD free ETPC (4.1µM)) was 140, the “Triangulation percentage change” value ([2]; 7-FOLD free ETPC (4.1µM)) was -1% and the “Beat Escape (raw data)” value ([2]; 7-FOLD free ETPC (4.1µM)) was 1. For the same molecule, the “EADs (raw data)” value ([2]; 7-FOLD free ETPC (4.1µM)) was 0, the “Refractoriness Escape (raw data)” value ([2]; 7-FOLD free ETPC (4.1µM)) was 0 and the “AMAX (average raw data)” value ([2]; 24-FOLD free ETPC (4.1µM)) was 102. For the same molecule, the “AMAX percentage change” value ([2]; 24-FOLD free ETPC (4.1µM)) was -9%, the “APD30 (average raw data)” value ([2]; 24-FOLD free ETPC (4.1µM)) was 137 and the “APD30 percentage change” value ([2]; 24-FOLD free ETPC (4.1µM)) was -25%. The “APD50 (average raw data)” value ([2]; 24-FOLD free ETPC (4.1µM)) was 180, the “APD50 percentage change” value ([2]; 24-FOLD free ETPC (4.1µM)) was -25% and the “APD90 (average raw data)” value ([2]; 24-FOLD free ETPC (4.1µM)) was 282. For the same molecule, the “APD90 percentage change” value ([2]; 24-FOLD free ETPC (4.1µM)) was -13%, the “Alternans (average raw data)” value ([2]; 24-FOLD free ETPC (4.1µM)) was 17.51 and the “Alternans percentage change” value ([2]; 24-FOLD free ETPC (4.1µM)) was 2481%. For the same molecule, the “Beat Escape percentage change” value ([2]; 24-FOLD free ETPC (4.1µM)) was 75%, the “EADs percentage change” value ([2]; 24-FOLD free ETPC (4.1µM)) was 0% and the “ERP (average raw data)” value ([2]; 24-FOLD free ETPC (4.1µM)) was 0.39. For the same molecule, the “ERP percentage change” value ([2]; 24-FOLD free ETPC (4.1µM)) was -8%, the “Max Dispersion (average raw data)” value ([2]; 24-FOLD free ETPC (4.1µM)) was 50.33 and the “Max Dispersion percentage change” value ([2]; 24-FOLD free ETPC (4.1µM)) was 1242%. For the same molecule, the “RMP (average raw data)” value ([2]; 24-FOLD free ETPC (4.1µM)) was -89, the “RMP percentage change” value ([2]; 24-FOLD free ETPC (4.1µM)) was -1% and the “Refractoriness Escape percentage change” value ([2]; 24-FOLD free ETPC (4.1µM)) was 0%. For the same molecule, the “STV (average raw data)” value ([2]; 24-FOLD free ETPC (4.1µM)) was 12.96, the “STV percentage change” value ([2]; 24-FOLD free ETPC (4.1µM)) was 2873% and the “Triangulation (average raw data)” value ([2]; 24-FOLD free ETPC (4.1µM)) was 145. For the same molecule, the “Triangulation percentage change” value ([2]; 24-FOLD free ETPC (4.1µM)) was 3%, the “Beat Escape (raw data)” value ([2]; 24-FOLD free ETPC (4.1µM)) was 3 and the “EADs (raw data)” value ([2]; 24-FOLD free ETPC (4.1µM)) was 0. The “Refractoriness Escape (raw data)” value ([2]; 24-FOLD free ETPC (4.1µM)) was 0, the “AMAX (average raw data)” value ([2]; 73-FOLD free ETPC (4.1µM)) was 86 and the “AMAX percentage change” value ([2]; 73-FOLD free ETPC (4.1µM)) was -22%. For the same molecule, the “APD30 (average raw data)” value ([2]; 73-FOLD free ETPC (4.1µM)) was 120, the “APD30 percentage change” value ([2]; 73-FOLD free ETPC (4.1µM)) was -27% and the “APD50 (average raw data)” value ([2]; 73-FOLD free ETPC (4.1µM)) was 165. The “APD50 percentage change” value ([2]; 73-FOLD free ETPC (4.1µM)) was -27%, the “APD90 (average raw data)” value ([2]; 73-FOLD free ETPC (4.1µM)) was 277 and the “APD90 percentage change” value ([2]; 73-FOLD free ETPC (4.1µM)) was -9%. The “Alternans (average raw data)” value ([2]; 73-FOLD free ETPC (4.1µM)) was 2.53, the “Alternans percentage change” value ([2]; 73-FOLD free ETPC (4.1µM)) was 272% and the “EADs percentage change” value ([2]; 73-FOLD free ETPC (4.1µM)) was 0%. The “ERP (average raw data)” value ([2]; 73-FOLD free ETPC (4.1µM)) was 0.42, the “ERP percentage change” value ([2]; 73-FOLD free ETPC (4.1µM)) was -1% and the “Max Dispersion (average raw data)” value ([2]; 73-FOLD free ETPC (4.1µM)) was 6.30. The “Max Dispersion percentage change” value ([2]; 73-FOLD free ETPC (4.1µM)) was 68%, the “RMP (average raw data)” value ([2]; 73-FOLD free ETPC (4.1µM)) was -76 and the “RMP percentage change” value ([2]; 73-FOLD free ETPC (4.1µM)) was -13%. The “Refractoriness Escape percentage change” value ([2]; 73-FOLD free ETPC (4.1µM)) was 0%, the “STV (average raw data)” value ([2]; 73-FOLD free ETPC (4.1µM)) was 1.74 and the “STV percentage change” value ([2]; 73-FOLD free ETPC (4.1µM)) was 182%. For the same molecule, the “Triangulation (average raw data)” value ([2]; 73-FOLD free ETPC (4.1µM)) was 157, the “Triangulation percentage change” value ([2]; 73-FOLD free ETPC (4.1µM)) was 12% and the “Beat Escape (raw data)” value ([2]; 73-FOLD free ETPC (4.1µM)) was 1.

From PMC5760531, “Action Potential Recording and Pro-arrhythmia Risk Analysis in Human Ventricular Trabeculae” (Frontiers in Physiology, 2018)
